Source: ChEMBL document CHEMBL1201862, “PubChem BioAssay data set” (2004)
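Following 48 hours of exposure in 96-well plates, responses at five concentrations were used to interpolate endpoints linearly. At the GI50, growth is halved.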 Activity calls are given as the source filed them. Rule as the data show it: active = GI50 up to about 1.1 µM and inactive = higher.

Columns and labels:
Assay in all cases: NCI-60 cell line screen, 48 h
786-0 = test system: 786-0
A498 = test system: A498
A549 = test system: A549
ACHN = test system: ACHN
CCRF-CEM = test system: CCRF-CEM
COLO 205 = test system: COLO 205
DLD-1 = test system: DLD-1
DMS-114 = test system: DMS-114
DMS-273 = test system: DMS-273
EKVX = test system: EKVX
HCC 2998 = test system: HCC 2998
HCT-116 = test system: HCT-116
HCT-15 = test system: HCT-15
HL-60 = test system: HL-60
HOP-62 = test system: HOP-62
HOP-92 = test system: HOP-92
HT-29 = test system: HT-29
IGROV-1 = test system: IGROV-1
K562 = test system: K562
KM-20L2 = test system: KM-20L2
LOX IMVI = test system: LOX IMVI
LXFL 529 = test system: LXFL 529
M14 = test system: M14
M19-MEL = test system: M19-MEL
MOLT-4 = test system: MOLT-4
Malme-3M = test system: Malme-3M
NCI-H226 = test system: NCI-H226
NCI-H23 = test system: NCI-H23
NCI-H460 = test system: NCI-H460
NCI-H522 = test system: NCI-H522
OVCAR-3 = test system: OVCAR-3
OVCAR-4 = test system: OVCAR-4
OVCAR-5 = test system: OVCAR-5
OVCAR-8 = test system: OVCAR-8
RPMI-8226 = test system: RPMI-8226
RXF 393 = test system: RXF 393
SF-268 = test system: SF-268
SF-295 = test system: SF-295
SF-539 = test system: SF-539
SK-MEL-28 = test system: SK-MEL-28
SK-MEL-2 = test system: SK-MEL-2
SK-MEL-5 = test system: SK-MEL-5
SK-OV-3 = test system: SK-OV-3
SN12C = test system: SN12C
SNB-19 = test system: SNB-19
SNB-75 = test system: SNB-75
SNB-78 = test system: SNB-78
SR = test system: SR
SW-620 = test system: SW-620
TK-10 = test system: TK-10
U-251 = test system: U-251
UACC-257 = test system: UACC-257
UACC-62 = test system: UACC-62
UO-31 = test system: UO-31
XF498 = test system: XF498
CAKI-1 = test system: CAKI-1
HOP-18 = test system: HOP-18
KM12 = test system: KM12

Measured: GI50

O=P(CCOc1ccccc1OCCP(=O)(c1ccccc1)c1ccc2c(c1)OCCOCCOCCOCCO2)(c1ccccc1)c1ccc2c(c1)OCCOCCOCCOCCO2 (stereo unspecified)
inactive: 786-0 > 100 µM | A498 > 100 µM | A549 > 100 µM | ACHN > 100 µM | CCRF-CEM > 100 µM | COLO 205 > 100 µM | DLD-1 > 100 µM | DMS-114 > 100 µM | DMS-273 > 100 µM | EKVX > 100 µM | HCC 2998 > 100 µM | HCT-116 > 100 µM | HL-60 > 100 µM | HOP-62 > 100 µM | HOP-92 > 100 µM | HT-29 > 100 µM | IGROV-1 > 100 µM | K562 > 100 µM | KM-20L2 > 100 µM | LOX IMVI > 100 µM | LXFL 529 > 100 µM | M14 > 100 µM | M19-MEL > 100 µM | MOLT-4 > 100 µM | Malme-3M > 100 µM | NCI-H226 > 100 µM | NCI-H23 > 100 µM | NCI-H460 > 100 µM | NCI-H522 > 100 µM | OVCAR-3 > 100 µM | OVCAR-4 > 100 µM | OVCAR-5 > 100 µM | OVCAR-8 > 100 µM | RPMI-8226 > 100 µM | RXF 393 > 100 µM | SF-268 > 100 µM | SF-295 > 100 µM | SF-539 > 100 µM | SK-MEL-28 > 100 µM | SK-MEL-2 > 100 µM | SK-MEL-5 > 100 µM | SK-OV-3 > 100 µM | SN12C > 100 µM | SNB-19 > 100 µM | SNB-75 > 100 µM | SNB-78 > 100 µM | SR > 100 µM | SW-620 > 100 µM | TK-10 > 100 µM | U-251 > 100 µM | UACC-257 > 100 µM | UACC-62 > 100 µM | UO-31 > 100 µM | XF498 > 100 µM
> 100 µM: HCT-15

C[C@@H]1C(=O)CC2C(C)(C)CCC[C@]2(C)[C@@]12CC[C@]1(C=COC1)O2 (stereo partly specified)
30.5 µM: HCT-15
inactive: 786-0 33.3 µM | A549 36.1 µM | ACHN 32.5 µM | CAKI-1 64.3 µM | CCRF-CEM 23.4 µM | COLO 205 32.3 µM | DMS-114 35.6 µM | DMS-273 34.2 µM | EKVX 42.9 µM | HCC 2998 38.1 µM | HCT-116 30.2 µM | HL-60 18.7 µM | HOP-18 > 100 µM | HOP-62 50.8 µM | HOP-92 13.8 µM | HT-29 28.2 µM | IGROV-1 36.9 µM | K562 24.3 µM | KM-20L2 46.7 µM | KM12 39.4 µM | LOX IMVI 33.4 µM | M14 29.4 µM | M19-MEL 38.1 µM | MOLT-4 16 µM | Malme-3M 27.8 µM | NCI-H226 91 µM | NCI-H460 32.8 µM | NCI-H522 19.2 µM | OVCAR-3 36.4 µM | OVCAR-4 43.8 µM | OVCAR-5 > 100 µM | OVCAR-8 27.9 µM | RXF 393 16 µM | SF-268 64.7 µM | SF-295 36.6 µM | SF-539 39.5 µM | SK-MEL-2 22.7 µM | SK-OV-3 27.5 µM | SN12C 18.7 µM | SNB-19 61 µM | SNB-78 41.2 µM | SR 22 µM | SW-620 50.8 µM | UACC-62 35.4 µM | UO-31 29.9 µM
